According to patent US10005809B2, “Bio-active antioxidants from plant foods for nutraceutical product development” (priority 2013, dated 2018):
“And” between values parts separate entries of the source, which are not always exact repeats. Identical values can stand only once. Counter-ions that a name gives are not always drawn.

Legend:
[1] = Trolox Equivalents Antioxidant Capacity (TEAC) assay; assay type: biochemical; conditions: for antioxidant activity (in words): TEAC measurements; for TEAC (Trolox equivalent antioxidant capacity) ± SEM: compounds 10-1000 μM, ABTS 0.5 mM, 734 nm, 6 min, ratio of slopes, no unit, n = 3
Procedure: Trolox Equivalents Antioxidant Capacity (TEAC) Assay of Compounds (1-11)
Pure compounds and standards (conc. Range 10-1000 μM) were reacted with the fixed concentration of ABTS (0.5 mM) according to the reported method. The decrease in absorbance at 734 nm was recorded 6 min after the addition of pro-formed ABTS radical solution. Standards including Trolox, quercetin, kaempferol and ascorbic acid were used for the comparison of structure-activity relationship with the isolated compounds. The calculation of TEAC values was obtained by plotting the graphs between various concentrations of compounds and percent radical scavenging activity. Slope (m) was then calculated by using the linear regression (y=mx+c) of the plotted curve. Ratio of the value of slope of Trolox with that of isolated compounds was calculated to get TEAC value as follows; TEACCompound=Slope of Trolox/Slope of compound (3)
The TEAC assay was used to assess the power of reduction of total amount of ABTS^•+ radicals formed during the reaction by bioactive metaboilite. The ABTS is intensely colored and when it reacts with antioxidant the color disappeared. […] In present procedure, the ratio of the slope of concentrations of standard and test compound is taken, therefore TEAC is considered as relative value with no unit. Trolox used as standard antioxidant with TEAC value as 1.

[2] = Liver function test (LFT) and lipid profile of serum after oral extract feeding; assay type: in vivo, Male Wistar rats; conditions: rat serum after two weeks oral feeding; mean ± SEM, n = 6
Source text: Rats were housed in polycarbonate cages, containing hardwood chip bedding. A standard pallet diet and water was made available ad-libitum. A 12 hr light/dark cycle was maintained throughout tbe study. After 14 days of acclimatization, the rats were randomized, and divided to 6 animals in each group: control, test, and positive control (Trolox). Oral doses of extracts were given after every alternate day and their physical status and weight changes were monitored daily. Control group has received an equal volume of normal saline for the same period of time. The experiment was terminated after two weeks of feeding. Under mild anesthetic conditions, blood was drawn via heart puncture. Blood was collected in clot activator plastic tubes, and allowed to clot for 30-40 minutes. Serum was separated by centrifugation and then stored at -20° C. till antioxidant status and other biochemical analysis were carried out. LPT and Lipid Profile The diagnostic facilities of […]), University of Karachi, were used for the biochemical analysis of serum samples. Lipid profile includes cholesterol, triglycerides, high density lipoproteins (HDL), low density lipoproteins (LDL), and LPT including bilirubin (total and direct), enzymes such as alanine aminotransferase (ALT), alkaline phosphatase (ALP), and gamma […] (GGT), were measured. These assays were performed by fully automated chemistry analyzer (Hitachi 902, Roche Diagnostics, Japan) with standardized kits, calibrators, and controls. Total lipid was estimated manually by calorimetric method of phosphovanilline on a photometer (Clinicon 4010, Boehringer […], Germany).

1,5-dimethyl citrate [compound 10]
antioxidant activity (in words) [1]: moderate to low antioxidant activity | TEAC (Trolox equivalent antioxidant capacity) ± SEM [1]: 0.67±0.31

O=C1O[C@H]([C@@H](O)CO)C(O)=C1O [Ascorbic acid, reference compound]
TEAC (Trolox equivalent antioxidant capacity) ± SEM [1]: 1.14 ± 0.29

O=c1c(O)c(-c2ccc(O)cc2)oc2cc(O)cc(O)c12 [Kaempferol, reference compound]
TEAC (Trolox equivalent antioxidant capacity) ± SEM [1]: 0.97 ± 0.27 | TEAC (Trolox equivalent antioxidant capacity) ± SEM ([1]; listed as keampferol): 0.97

O=c1c(O)c(-c2ccc(O)c(O)c2)oc2cc(O)cc(O)c12 [Quercetin, reference compound]
TEAC (Trolox equivalent antioxidant capacity) ± SEM [1]: 1.07 ± 0.23 | TEAC (Trolox equivalent antioxidant capacity) ± SEM ([1]; listed as quercetin): 1.07±0.23

Cc1c(C)c2c(c(C)c1O)CCC(C)(C(=O)O)O2 (centres unmarked) [Trolox, 6-hydroxy-2,5,7,8-tetramethylchroman-2-carboxylic acid]
ALP [2]: 212.54 ± 24.51 U/L | ALT/SGPT [2]: 45.5 ± 5.49 U/L | Chol [2]: 56.75 ± 2.07 mg/dL | Direct Bilirubin [2]: 0.085 ± 0.007 mg/dL | GGT [2]: 4.25 ± 0.74 U/L | HDL-c [2]: 55 ± 1.97 mg/dL | Indirect Bilirubin [2]: 0.43 ± 0.03 mg/dL | LDL-c [2]: 14.25 ± 0.96 mg/dL | TAG [2]: 40 ± 1.54 mg/dL | Total Bilirubin [2]: 0.51 ± 0.02 mg/dL | Total Lipid [2]: 260 ± 5 mg/dL | VLDL [2]: 8.5 ± 0.25 mg/dL | TEAC (Trolox equivalent antioxidant capacity) ± SEM [1]: 1

COc1cc(-c2oc3cc(O)cc(O[C@@H]4O[C@H](COC(=O)CC(C)(O)CC(=O)O)[C@@H](O)[C@H](O)[C@H]4O)c3c(=O)c2O)ccc1O (stereo partly drawn) [compound 1, isorhamnetol 5-O-[6″-(3-hydroxy-3-methyl glutarate)] β-D-glucoside]
TEAC (Trolox equivalent antioxidant capacity) ± SEM [1]: 0.88 ± 0.21

C[C@H]1O[C@@H](Oc2c(-c3ccc(O)cc3)oc3cc(O)cc(O)c3c2=O)[C@@H](O)[C@@H](O)[C@@H]1O [compound 3, kaempferol 3-O-β-D-rhamnoside]
TEAC (Trolox equivalent antioxidant capacity) ± SEM [1]: 0.91 ± 0.21

O=c1c(O[C@@H]2O[C@H](CO)[C@@H](O)[C@H](O)[C@H]2O)c(-c2ccc(O)c(O)c2)oc2cc(O)cc(O)c12 [compound 4, quercetin 3-O-β-D-glucoside]
TEAC (Trolox equivalent antioxidant capacity) ± SEM [1]: 0.82±0.23 and 0.82 ± 0.32

C[C@H]1O[C@@H](Oc2c(-c3ccc(O)c(O)c3)oc3cc(O)cc(O)c3c2=O)[C@@H](O)[C@@H](O)[C@@H]1O [compound 5, quercetin 3-O-β-D-rhamnoside]
TEAC (Trolox equivalent antioxidant capacity) ± SEM [1]: 0.82 ± 0.23

O=C(/C=C/c1ccc(O)cc1)O[C@H]1C(Oc2c(-c3ccc(O)c(O)c3)oc3cc(O)cc(O)c3c2=O)O[C@H](CO)[C@@H](O)[C@@H]1O (some centres unmarked) [compound 6, quercetin 3-O-(2-p-coumaroylglucoside)]
TEAC (Trolox equivalent antioxidant capacity) ± SEM [1]: 0.36 ± 0.19

O=Cc1ccc(CO)o1 [compound 8, 5-hydroxymethylfurfural]
TEAC (Trolox equivalent antioxidant capacity) ± SEM [1]: 1.05±0.24

O=C(O)c1ccc(O)c(O)c1 [compound 9, 3,4-dihydroxybenzoic acid]
TEAC (Trolox equivalent antioxidant capacity) ± SEM [1]: 0.95 ± 0.01

COC(=O)CC(O)(CC(=O)OC)C(=O)OC [compound 11, trimethyl citrate]
antioxidant activity (in words) [1]: moderate to low antioxidant activity | TEAC (Trolox equivalent antioxidant capacity) ± SEM [1]: 0.58±0.12

kaempferol 3-O-β-D-glucoside [compound 2]
TEAC (Trolox equivalent antioxidant capacity) ± SEM [1]: 0.80 ± 0.31

myricetin 3-O-β-D-xyloside [compound 7]
TEAC (Trolox equivalent antioxidant capacity) ± SEM [1]: 0.92 ± 0.35 | TEAC (Trolox equivalent antioxidant capacity) ± SEM ([1]; listed as myricetin): 0.92±0.35
